Experimental data from ChEMBL document CHEMBL1125473, “A series of potent HIV-1 protease inhibitors containing a hydroxyethyl secondary amine transition state isostere: synthesis, enzyme inhibition, and antiviral activity” (J Med Chem, 1992).
Numbered stars: 1 amine (or outer) side, 2 acyl side, 3 side chain; on linkers, the order of the positions; unused ones are H or OH. Square brackets hold non-standard residues; d marks the D form. Peptide text beside a SMILES is read from it. X1 = O=C([C@H]1CCCN1C[C@@H](O)[C@@H](Cc1ccccc1)N[*:1])[*:2]

What was measured:
[1] = target: T1, Human immunodeficiency virus type 1 protease (Human immunodeficiency virus 1, UniProt Q72874); experiment: In vitro inhibition of HIV protease, using a peptide hydrolysis assay
[2] = target: T1, Human immunodeficiency virus type 1 protease; experiment: In vitro inhibition of HIV-Protease, using a peptide hydrolysis assay

Row | SMILES | IC50 [1] | IC50 [2] | further results
1 | CC(C)(C)OC(=O)N[C@@H](Cc1ccccc1)[C@H](O)CN[C@H](Cc1ccccc1)C(=O)N[C@H]1c2ccccc2C[C@H]1O | 7.3 µM | – | –
2 | CC(C)(C)OC(=O)N[C@@H](Cc1ccccc1)[C@@H](O)CN[C@@H](Cc1ccccc1)C(=O)N[C@H]1c2ccccc2C[C@H]1O | 4.7 µM | – | –
3 | CC(C)(C)OC(=O)N[C@@H](Cc1ccccc1)[C@@H](O)CN[C@H](Cc1ccccc1)C(=O)N[C@H]1c2ccccc2C[C@H]1O | 23.4 µM | – | –
4 | NC(=O)CC(N)C(=O)N[C@@H](Cc1ccccc1)[C@H](O)CN[C@@H](Cc1ccccc1)C(=O)NC1c2ccccc2C[C@H]1O (stereo not given in full) | – | 1.1 µM | –
5 | CC(C)(C)OC(=O)NC(CC(N)=O)C(=O)N[C@@H](Cc1ccccc1)C(O)CN[C@@H](Cc1ccccc1)C(=O)NC1c2ccccc2C[C@H]1O (stereo not given in full) | – | 0.295 µM | –
6 | N[C@@H](Cc1ccccc1)C(O)CN[C@@H](Cc1ccccc1)C(=O)NC1c2ccccc2C[C@H]1O (stereo not given in full) | – | 63 µM | –
7 | CC(C)(C)NC(=O)C(Cc1ccccc1)NCC(O)[C@H](Cc1ccccc1)NC(=O)OC(C)(C)C (stereo not given in full) | – | > 100 µM | –
8 | NC(=O)CC(NC(=O)c1ccc2ccccc2n1)C(=O)N[C@@H](Cc1ccccc1)[C@H](O)CN[C@@H](Cc1ccccc1)C(=O)NC1c2ccccc2C[C@H]1O (stereo not given in full) | – | 0.0054 µM | –
9 | CC(C)(C)OC(=O)N[C@@H](Cc1ccccc1)[C@H](O)CN1C[C@H]2CCCC[C@H]2C[C@H]1C(=O)NC1c2ccccc2CC1O (stereo not given in full) | – | > 3 µM | –
10 | CC(C)(C)OC(=O)N[C@@H](Cc1ccccc1)C(O)CNC(Cc1ccccc1)C(=O)NC(CO)c1ccccc1 (stereo not given in full) | 38 µM | – | –
11 | CC(C)(C)OC(=O)N[C@@H](Cc1ccccc1)[C@H](O)CN[C@@H](Cc1ccccc1)C(=O)N[C@H]1c2ccccc2C[C@H]1O | 0.252 µM | – | –
12 | CC(C)(C)NC(=O)[C@@H]1C[C@@H]2CCCC[C@@H]2CN1C[C@@H](O)[C@H](Cc1ccccc1)NC(=O)OC(C)(C)C | – | > 3 µM | –
13 | CC[C@H](C)[C@H](NC(=O)[C@H]1CCCN1C[C@@H](O)[C@@H](Cc1ccccc1)NC(=O)[C@H](CC(N)=O)NC(=O)[C@H](CC(C)C)NC(=O)[C@@H](N)CO)C(=O)N[C@H](C(=O)OC)C(C)C (H-SLN[X1]IV-OMe) | – | – | Ki [2]: 0.00024 µM
14 | CC(C)(C)OC(=O)N[C@@H](Cc1ccccc1)[C@H](O)CNC(C(=O)N[C@H]1c2ccccc2C[C@H]1O)C(O)c1ccccc1 (stereo in doubt; 12) | 8.5 µM | – | –
15 | CC(C)(C)OC(=O)N[C@@H](Cc1ccccc1)[C@H](O)CNC(C(=O)N[C@H]1c2ccccc2C[C@H]1O)C(O)c1ccccc1 (stereo in doubt; 13) | 8.6 µM | – | –
